According to ChEMBL document CHEMBL2113921, “Open Source Malaria Deposition 1. http://malaria.ourexperiment.org” (2013):
Values after ≈ are worked out from the molar mass of the structure shown. Blank lines part the entries; values can stand above or below the compound they belong to. Active and inactive are the calls of the source. The calls are words filed in the database; no cut-off is given here.

How the values were obtained:
[1] = system: Plasmodium falciparum; test: OSM: Inhibition of Plasmodium falciparum 3D7 growth using a SYBR green I fluorescence based assay. GSK Tres Cantos.; format: functional, organism-based
[2] = system: Plasmodium falciparum; test: OSM: Percent inhibition of Plasmodium falciparum 3D7 growth at 80 uM. Avery Group Griffith.; format: functional
[3] = system: Plasmodium falciparum; test: OSM: Percent inhibition of Plasmodium falciparum 3D7 growth at 40 uM. Avery Group Griffith.; format: functional
[4] = system: Plasmodium falciparum; test: OSM: CSIR assay 3D7: Compounds were tested for inhibition of Plasmodium falciparum growth using a SYBR green I fluorescence based assay.; format: functional, organism-based
[5] = system: Plasmodium falciparum K1; test: OSM: CSIR assay K1: Compounds were tested for inhibition of Plasmodium falciparum growth using a SYBR green I fluorescence based assay.; format: functional, organism-based
[6] = system: Plasmodium falciparum; test: OSM: Inhibition of Plasmodium falciparum 3D7 growth. IC50 values determined from 21 point dose response curves. Avery Group Griffith.; format: functional, organism-based
[7] = system: Plasmodium falciparum; test: OSM: Inhibition of Plasmodium falciparum 3D7 growth using a SYBR green I fluorescence based assay. Dose response curves were generated comprising of 8 points using a 2-fold serial dilution for the maximum final concentration of 1000 nM. Ralph Group, Bio21.; format: functional, organism-based
[8] = target: Voltage-gated inwardly rectifying potassium channel KCNH2 (Homo sapiens, UniProt Q12809); test: OSM: hERG, IC50 uM (Essen Bioscience): IonWorks patch clamp electrophysiology. 8 point concentration-response curves were generated using 3-fold serial dilutions from the maximum final assay concentration of 33 uM.; format: functional
Voltage-gated inwardly rectifying potassium channel KCNH2, sequence (Q12809 whole entry): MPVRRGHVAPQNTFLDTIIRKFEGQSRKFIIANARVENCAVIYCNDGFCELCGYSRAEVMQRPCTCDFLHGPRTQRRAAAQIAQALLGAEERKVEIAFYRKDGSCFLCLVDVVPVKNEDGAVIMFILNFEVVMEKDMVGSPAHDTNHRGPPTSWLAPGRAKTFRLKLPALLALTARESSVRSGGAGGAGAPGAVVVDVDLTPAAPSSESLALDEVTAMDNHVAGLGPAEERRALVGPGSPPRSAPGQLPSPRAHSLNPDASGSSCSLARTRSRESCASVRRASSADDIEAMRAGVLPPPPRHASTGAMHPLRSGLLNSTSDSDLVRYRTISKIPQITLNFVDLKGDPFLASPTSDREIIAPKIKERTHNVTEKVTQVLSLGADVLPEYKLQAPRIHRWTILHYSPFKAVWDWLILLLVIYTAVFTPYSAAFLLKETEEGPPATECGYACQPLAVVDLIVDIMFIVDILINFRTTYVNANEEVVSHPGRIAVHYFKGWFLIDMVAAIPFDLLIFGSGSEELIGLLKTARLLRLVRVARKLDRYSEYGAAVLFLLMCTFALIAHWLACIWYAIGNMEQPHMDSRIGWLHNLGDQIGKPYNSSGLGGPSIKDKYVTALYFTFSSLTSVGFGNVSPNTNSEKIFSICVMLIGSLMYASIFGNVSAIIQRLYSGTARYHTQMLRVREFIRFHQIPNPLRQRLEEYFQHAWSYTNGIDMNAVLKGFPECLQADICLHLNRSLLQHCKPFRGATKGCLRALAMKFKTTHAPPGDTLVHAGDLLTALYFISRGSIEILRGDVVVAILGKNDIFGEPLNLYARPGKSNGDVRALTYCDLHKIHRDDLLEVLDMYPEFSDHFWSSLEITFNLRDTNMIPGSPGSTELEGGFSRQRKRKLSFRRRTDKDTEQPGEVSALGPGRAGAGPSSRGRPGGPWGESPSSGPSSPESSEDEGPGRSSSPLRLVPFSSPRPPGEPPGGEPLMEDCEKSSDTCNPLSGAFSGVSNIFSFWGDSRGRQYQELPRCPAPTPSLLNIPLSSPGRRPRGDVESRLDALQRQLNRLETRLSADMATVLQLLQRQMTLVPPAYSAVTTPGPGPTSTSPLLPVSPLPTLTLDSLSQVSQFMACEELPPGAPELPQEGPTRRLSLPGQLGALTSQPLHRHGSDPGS

[9] = system: Plasmodium berghei; test: OSM: Mice are infected intravenously with parasitized red blood cells on day 0 (2 x 10^7 parasitized erythrocytes per ml). Experimental mice are generally treated at 4, 24, 48, and 72 hours post-infection with an oral dose of the compound (50 mg/kg, 4-day test by Peters) and are compared to an infected control group for reduction in parasitaemia on day 4 (96 hours post-infection) as a percentage.; format: functional, organism-based; settings: Mus musculus; Swiss; Plasma
[10] = OSM: HEK293 cytotoxicity assay. IC50 values determined from 21 point dose response curves. Avery Group Griffith.; format: toxicity, cell-based; settings: human, HEK293 cells
[11] = system: Plasmodium falciparum; test: OSM: Late stage gametocytes. IC50 values determined from 21 point dose response curves. Avery Group Griffith.; format: functional, organism-based; settings: Pfs16-GFP transgenic NF54
[12] = system: Plasmodium falciparum K1; test: OSM: Inhibition of Plasmodium falciparum K1 growth. IC50 values determined from 21 point dose response curves. Avery Group Griffith.; format: functional, organism-based
[13] = OSM: HEK293 cytotoxicity assay. Duplicate point single experiment at 120 uM. Avery Group, Griffith.; format: toxicity, cell-based; settings: human, HEK293 cells; read-out: Inhibition
[14] = OSM: Kinetic solubility pH 2 0.01 M HCl ug/mL.; format: ADME
[15] = OSM: Kinetic solubility pH 6.5 isotonic phosphate buffer.; format: ADME
[16] = OSM: Microsomal stability: 0.5 uM substrate, 0.4 mg/mL protein, NADPH cofactor). Analysed by LC/MS. In vitro CLint (uL/min/mg protein).; format: ADME, Microsome; settings: human, microsomes
[17] = OSM: Microsomal stability: 0.5 uM substrate, 0.4 mg/mL protein, NADPH cofactor. Analysed by LC/MS. Degradation half life (min).; format: ADME, Microsome; settings: human, microsomes
[18] = OSM: Microsomal stability: 0.5 uM substrate, 0.4 mg/mL protein, NADPH cofactor. Analysed by LC/MS. Degradation rate classification.; format: ADME, Microsome; settings: human, microsomes
[19] = system: Plasmodium falciparum; test: OSM: Percent inhibition of Plasmodium falciparum 3D7 growth at 100 uM. Avery Group Griffith.; format: functional

Compound: Cc1c(NC(=O)CNC(=O)c2ccccc2)c(=O)n(-c2ccccc2)n1C
IC50 [1]: > 5000 nM | inhibition at 80 µM [2]: 0%

Compound: Cc1cccc(-n2c(C)cc(C(=O)N(C)CC(=O)Nc3cc(C)on3)c2C)c1
inhibition at 40 µM [3]: 85%

Compound: Cc1cc(/C=C2\S/C(=N\c3ccccc3)N(c3ccccc3)C2=O)c(C)n1-c1cccc(F)c1
IC50 [4]: 3200 nM | IC50 [5]: > 5000 nM

Compound: Cc1cc(/C=C2\SC(=Nc3ccccc3)NC2=O)c(C)n1-c1ccccc1
IC50 [6]: 26 nM | IC50 [7]: 11 nM | IC50 [1]: 36 nM | IC50 [8]: > 33 µM | Reduced_parasitemia [9]: inactive

Compound: Cc1cc(C(=O)Nc2c(C)n(C)n(-c3ccccc3)c2=O)c(C)n1-c1ccc(F)cc1
inhibition at 80 µM [2]: 100%

Compound: CNC(=O)CN(C)C(=O)c1cc(C)n(-c2ccc(Br)cc2)c1C
inhibition at 40 µM [3]: 70%

Compound: Cc1cc(C(=O)CCC(N)=O)c(C)n1-c1ccc(F)cc1
inhibition at 40 µM [3]: 61%

Compound: COc1ccc(-c2cc3ncnc(Oc4ccc(S(=O)(=O)N5CCOCC5)cc4)c3s2)cc1
inhibition at 40 µM [3]: 80%

IC50 [11]: 0.3 nM
Compound: CC[C@H](C)[C@H](NC(=O)[C@H]([C@@H](C)CC)N(C)C(C)=O)C(=O)N[C@H](C(=O)N[C@@H](CC(C)C)C(=O)[C@@]1(C)CO1)[C@@H](C)O [EPOXOMYCIN]
IC50 [6]: 4.2 nM | IC50 [10]: 0.0336 µM | IC50 [12]: 2.8 nM

Compound: CCN(CC)CCCC(C)Nc1ccnc2cc(Cl)ccc12 (configuration not stated) [CHLOROQUINE]
cytotoxicity at 120 µM [13]: 100% | IC50 [5]: 235 nM | IC50 [12]: 266 nM

solubility kinetic [14]: 50 µg/mL (≈ 172 µM) | solubility kinetic [15]: 50 µg/mL (≈ 172 µM) | microsomal CLint at 0.5 µM [16]: 29 µL/min/mg | half-life at 0.5 µM [17]: 59 min | Relative metabolic rate [18]: Moderate
Compound: Cc1cc(C(=O)OCC(N)=O)c(C)n1-c1ccc(F)cc1
IC50 [6]: 404 nM | IC50 [1]: 818 nM | cytotoxicity at 120 µM [13]: 20% | IC50 [8]: > 33 µM | Reduced_parasitemia [9]: inactive | IC50 [4]: 581 nM | IC50 [5]: 641 nM | IC50 [12]: 375 nM

solubility kinetic [14]: 12.5 µg/mL (≈ 26.2 µM) | solubility kinetic [15]: 12.5 µg/mL (≈ 26.2 µM) | microsomal CLint at 0.5 µM [16]: 60 µL/min/mg | half-life at 0.5 µM [17]: 29 min | Relative metabolic rate [18]: Moderate
Compound: Cc1cc(C(=O)OCC(=O)Nc2c(C)n(C)n(-c3ccccc3)c2=O)c(C)n1-c1ccc(F)cc1
IC50 [6]: 345 nM | IC50 [1]: 245 nM | cytotoxicity at 120 µM [13]: 20% | Reduced_parasitemia [9]: inactive | IC50 [12]: 152 nM

Compound: CCc1nc(N)nc(N)c1-c1ccc(Cl)cc1 [PYRIMETHAMINE]
IC50 [6]: 8.95 nM | IC50 [10]: 13.9 µM | IC50 [12]: 11900 nM

Compound: Cc1cc(C(=O)NCC(N)=O)c(C)n1-c1ccc(F)cc1
IC50 [7]: > 1000 nM | IC50 [1]: > 5000 nM | inhibition at 80 µM [2]: 25%

Compound: O=C1N=C(Nc2ccccc2)S/C1=C\c1ccccc1
IC50 [7]: > 1000 nM | IC50 [1]: > 5000 nM | inhibition at 100 µM [19]: 100%

Compound: Cc1cc(CN2CCCC2)c(C)n1-c1ccc(F)cc1
inhibition at 40 µM [3]: 96%

solubility kinetic [15]: 3 µg/mL (≈ 6.8 µM) | microsomal CLint at 0.5 µM [16]: < 7 µL/min/mg | half-life at 0.5 µM [17]: > 250 min | Relative metabolic rate [18]: Low | IC50 [11]: 4 nM
Compound: Cc1cc(/C=C2\S/C(=N\c3ccccc3)NC2=O)c(C)n1-c1ccc(C(F)(F)F)cc1
IC50 [6]: 2 nM | IC50 [7]: 205 nM | IC50 [1]: 29 nM
